Consider two compounds from PMC8038331, “Discovery of a Novel Acetylcholinesterase Inhibitor by Fragment-Based Design and Virtual Screening” (Molecules, 2021).

In data set [1] the test system is murine neuroblastoma neuro-2A cells. To be noted: read-out: Neurotoxicity on neuro-2A cells (IC50); cited from earlier work.
Data set [2] in a line: Neurotoxicity test, MTT-dye reduction assay on neuro-2A cells. To be noted: mouse, neuro-2A neuroblastoma cells, 72 h incubation. In kind it is cell-based, murine. How it is done: The cytotoxicity of compound 8 was tested on neuro-2A cells as described in the Materials and Мethods section.
To assess the neurocytotoxicity of the selected compound, murine neuroblastoma neuro-2A cells (German collection DSMZ, Braunschweig, Germany) were used. They were cultivated under standard conditions: complete medium (90% DMEM, 10% heat-inactivated FBS, and non-essential amino acids); 37 °C and 5% CO2 in a fully humidified atmosphere. The cell line was kept in the logarithmic growth phase by splitting 1:4 once a week using trypsin/EDTA. About 30% of the cells grew like neuronal cells. For the experimental evaluation of the cytotoxicity, the cells were plated in 96-well flat-bottomed plates at the recommended density of around 1100 cells/25 cm^2. After 24 h, the cells were treated with a series of concentrations (100, 50, 25, 12.5, 6.25 µM) of the tested compound, and after 72 h incubation, an MTT-dye reduction assay was performed. MTT stock solution (10 mg/mL in PBS) was added (0.01 mL/well) at the end of incubation. Plates were further incubated at 37 °C for 4 h. Next, the formazan crystals were dissolved by the addition of 0.110 mL/well 5% formic acid in 2-propanol (v/v). Absorption was measured at 580 nm wavelength on an automated ELISA reader Labexim LMR1. […]
For orientation: Tetrazolium assays rely on reduction of a dye to a coloured formazan, in cell work by metabolically active cells.

In data set [3] the target is T1, acetylcholinesterase from Electrophorus electricus (eeAChE) (Electrophorus electricus, UniProt O42275).
T1 construct: purchased Sigma-Aldrich
T1 sequence (O42275 24-633): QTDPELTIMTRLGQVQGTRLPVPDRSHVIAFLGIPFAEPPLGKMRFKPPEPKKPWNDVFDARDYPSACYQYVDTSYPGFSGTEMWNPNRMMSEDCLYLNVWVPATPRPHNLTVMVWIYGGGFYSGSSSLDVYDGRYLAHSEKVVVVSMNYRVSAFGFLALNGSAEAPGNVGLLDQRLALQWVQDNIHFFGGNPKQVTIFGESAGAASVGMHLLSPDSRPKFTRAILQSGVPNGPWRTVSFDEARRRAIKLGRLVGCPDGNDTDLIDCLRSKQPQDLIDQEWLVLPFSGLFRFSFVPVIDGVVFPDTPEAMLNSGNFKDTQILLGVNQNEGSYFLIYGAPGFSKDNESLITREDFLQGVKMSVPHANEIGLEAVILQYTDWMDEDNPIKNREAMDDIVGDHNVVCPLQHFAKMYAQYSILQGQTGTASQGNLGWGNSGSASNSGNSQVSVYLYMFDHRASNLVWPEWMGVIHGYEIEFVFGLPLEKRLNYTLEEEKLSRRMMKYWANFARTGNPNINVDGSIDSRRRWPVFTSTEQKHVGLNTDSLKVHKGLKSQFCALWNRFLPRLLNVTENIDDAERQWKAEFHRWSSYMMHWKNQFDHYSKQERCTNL
As to the kind of experiment: biochemical. In kind it is biochemical. How it is done:
However, the docking simulations were conducted on human AChE (rhAChE).
The microplate assay used for measuring AChE inhibitory activity was as described by Ellman with the modifications added by López. Acetylthiocholine iodide (ATCI) in a solution with 5,5′-dithiobis(2-nitrobenzoic acid) (DTNB) was used as a substrate for the acetylcholinesterase from Electrophorus electricus (Steinheim, Sigma-Aldrich, Germany). 50 μL of AChE (0.25 U/mL) dissolved in phosphate buffer (8 mM K2HPO4, 2.3 mM NaH2PO4, 0.15 M NaCl, pH 7.5) and 50 μL of the sample dissolved in the same buffer were added to the wells. The plates were incubated for 30 min at room temperature before the addition of 100 μL of the substrate solution (0.04 M Na2HPO4, 0.2 mM DTNB, 0.24 mM ATCI, pH 7.5). […] Enzyme activity was calculated as an inhibition percentage compared to an assay using a buffer without any inhibitor. […] The AChE inhibitory data were analyzed with the software package Prism 9 (GraphPad Inc., San Diego, USA). The IC50 values were measured in triplicate, and the results are presented as means ± SD.

Values joined by “and” are separate entries in the source; they are usually repeats but may differ in a detail not shown here. Equal entries are not always repeated.

`COc1ccc2c3c1O[C@H]1C[C@@H](O)C=C[C@@]31CCN(C)C2` [GAL, Galantamine]: in data set [1], the IC50 is more than 50000 nM.

As to `COc1ccc2c3c1O[C@H]1C[C@@H](O)C=C[C@@]31CCN(CCNC(=O)CCc1ccccc1-c1ccccc1)C2` [Compound 8, 3-(biphenyl-2-yl)-N-{2-[(4aS,6R,8aS)-6-hydroxy-3-methoxy-5,6,9,10-tetrahydro-4aH-[1]benzofuro[3a,3,2-ef][2]benzazepin-11(12H)-yl]ethyl}propanamide], in data set [2], the IC50 at 72 h was more than 100000 nM. In addition, in data set [3], the “Times more active than GAL (AChE inhibition)” value is listed as 68 times. Moreover, the IC50 in data set [3] (eeAChE, Ellman's method, 30 min preincubation, mean ± SD, triplicate, read-out: Inhibitory activity on eeAChE (IC50)) was 28 nM and 27.8 nM.

Usually IC50 stands for the concentration at which inhibition is half-maximal.
